Experimental data: patent publication US20030187048A1, “Method for inhibiting skin lesion formation using histamine as the active ingredient” (priority 1991, published 2003)
Where “and” joins values, the source holds several entries; their conditions need not be identical. Identical values can stand only once. Like-named read-outs stand apart in the source and are kept apart here.

Experiments:
herpes genitalis lesions = settings: for Burning score / Local pain score: scale 0 to 5; for Reduction in Complete Healing Time: vs usual episode
Method: Treatment consisted of topical application three times a day for a period of five days. […] The percent reduction in complete healing time as compared to a usual episode was evaluated grouping the two patients who received active gel concentrations together and comparing to the two patients receiving placebo gel.
Each patient was contacted daily for 5 days for his or her estimate of the symptomatic relief of 6 common symptoms associated with genital herpes as well as the patient's interpretation of total healing of the episode. In an attempt to quantify responses, patients were asked to rate each symptom on a scale of 0 to 5 with 0 representing no evidence of the symptom and 5 representing the worst or most prominent evidence of the symptom ever for the patient. Subject compliance with the study regimen and the use of other medications was also assessed.

[1] = tested on: oral mucositis (stomatitis) secondary to chemotherapy; settings: for Mean % Reduction In Symptom (discomfort with food/drink) / Mean Percent Reduction From Original Per Day / Mean % Reduction In Symptom: group mean
From the text: Prospective subjects were considered for the study if their mucositis (stomatitis) was diagnosed by their oncologist as secondary to their chemotherapy and if their oncologist recommended them as candidates for the study.
Patients were randomly assigned to one of three active ingredient levels being evaluated.
Following diagnosis and recommendation of oral mucositis patients by their oncologists, qualified participants were instructed to topically, intraorally apply one teaspoonful of their respective, randomly assigned gel by swishing and holding the gel in their mouth for 2 minutes and then expectorating the gel.
Evaluation of the extent of the oral mucous membrane involvement was based on each patient's estimate of this involvement (as a percentage) of the entire oral mucous membranes and each patient was contacted daily for this estimate as well as his or her estimate of the symptomatic relief of 5 common oral symptoms associated with mucositis (stomatitis) secondary to chemotherapy. In an attempt to quantify responses, patients were asked to rate each symptom each day an a scale of 0 to 5 with 0 representing no evidence of the symptom and 5 representing the worst or most vi prominent evidence of the symptom ever for the patient.
Patient compliance with the study regimen and the use of other medications or treatments was also evaluated.

[2] = tested on: Varicella zoster (chickenpox) lesions; settings: for Mean % Reduction In Healing Time per Lesion: compared to placebo gel; for Itching score / Local pain score: scale 0 to 5; for Mean Time to Lesion Healing: placebo patients 7 days
Method: Treatment consisted of topical application three times a day for a period of five days. […] The mean percent reduction in complete healing time per average pox lesion was evaluated grouping the two patients who received active gel concentrations together and comparing to the two patients receiving placebo gel.
Subjects were assigned randomly to one of three active ingredient levels being evaluated, 0.0%, 0.0067% and G.009% by weight of active ingredient.
Each patient was contacted daily for 5 days for his or her estimate of the symptomatic relief of any symptoms associated with Varicella zoster (chickenpox) as well as the patient's interpretation of total healing of the episode in addition to the patient's description of the lesions present. In an attempt to quantify responses, patients were asked to rate each symptom each day on a scale of 0 to 5 with 0 representing no evidence of the symptom and 5 representing to worst or most prominent evidence of the symptom ever for the patient. Subject compliance with the study regimen and the use of other medications was also assessed.
Lesions were monitored for the usual progression of the typical stages seen with Varicella zoster. Typical chickenpox begins as crops of small, red papules that almost immediately develop into clear, “tear drop” vesicles on an erythematous base which are usually not umbilicated. The lesions initially contain clear fluid, but within 24 hours the contents become cloudy. once this occurs, the vesicles are easily broken and become scabbed. Successive crops of lesions appear for 3 to 4 days.

NCCc1c[nH]cn1 [IEP, 1H-imidazole-4-ethanamine,phosphate]
Burning score (herpes genitalis lesions; 0.0275% IEP gel, day 1): 3
Local pain score (herpes genitalis lesions; 0.0275% IEP gel, day 1 of treatment): 3
Burning score (herpes genitalis lesions; 0.0275% IEP gel, day 2): 0
Local pain score (herpes genitalis lesions; 0.0275% IEP gel, day 2): 0
Burning score (herpes genitalis lesions; 0.0275% IEP gel, day 3): 0
Local pain score (herpes genitalis lesions; 0.0275% IEP gel, day 3): 0
Burning score (herpes genitalis lesions; 0.0275% IEP gel, day 4): 0
Local pain score (herpes genitalis lesions; 0.0275% IEP gel, day 4): 0
Burning score (herpes genitalis lesions; 0.0275% IEP gel, day 5): 0
Local pain score (herpes genitalis lesions; 0.0275% IEP gel, day 5): 0
Healing Time (herpes genitalis lesions; 0.0275% IEP gel, patient 603, usual healing time 7 days): 1 days
Reduction in Complete Healing Time (herpes genitalis lesions; 0.0275% IEP gel): 85%
Burning score (herpes genitalis lesions; […] IEP gel, day 1): 3
Local pain score (herpes genitalis lesions; […] IEP gel, day 1): 4
Burning score (herpes genitalis lesions; […] IEP gel, day 2): 1
Local pain score (herpes genitalis lesions; […] IEP gel, day 2): 2
Burning score (herpes genitalis lesions; […] IEP gel, day 3): 0
Local pain score (herpes genitalis lesions; […] IEP gel, day 3): 2
Burning score (herpes genitalis lesions; […] IEP gel, day 4): 0
Local pain score (herpes genitalis lesions; […] IEP gel, day 4): 0
Burning score (herpes genitalis lesions; […] IEP gel, day 5): 0
Local pain score (herpes genitalis lesions; […] IEP gel, day 5): 0
Healing Time (herpes genitalis lesions; […] IEP gel, patient 604, usual healing time 7 days): 3.5 days
Reduction in Complete Healing Time (herpes genitalis lesions; […] IEP gel): 50%
Difference in percent reduction in complete healing time vs placebo (herpes genitalis lesions; combined […] and 0.0275% groups, p<0.05): significant
Untoward reactions (herpes genitalis lesions; topical gel […], 0.0275%, three times a day for five days): no untoward reactions
Mean % Reduction In Symptom (discomfort with food/drink) ([1]; 0.0045% IEP gel): 55.6%
Mean Percent Reduction From Original Involvement Per Day ([1]; 0.0045% IEP gel, per patient): 33.3% and 18.0% and 25.0%
Percent of Mouth that Lesions Occupy ([1]; 0.0045% gel, Day 4, per patient): 0% and 25% and 1%
Percent of Mouth that Lesions Occupy ([1]; 0.0045% gel, Day 5, per patient): 0%
Percent of Mouth that Lesions Occupy ([1]; 0.0045% gel, Day 6, per patient): 0% (2×) and 5%
Percent of Mouth that Lesions Occupy ([1]; 0.0045% gel, Day 7, per patient): 0%
Mean Percent Reduction From Original Per Day ([1]; 0.0045% gel): 25.4%
Mean % Reduction In Symptom (discomfort with food/drink) ([1]; 0.0275% IEP gel): 52.8%
Mean Percent Reduction From Original Involvement Per Day ([1]; 0.0275% IEP gel, per patient): 50.0% and 33.3% (2×)
Percent of Mouth that Lesions Occupy ([1]; 0.0275% gel, Day 1 of treatment, per patient): 50% and 25% (2×)
Percent of Mouth that Lesions Occupy ([1]; 0.0275% gel, Day 2, per patient): 30% and 25% (2×)
Percent of Mouth that Lesions Occupy ([1]; 0.0275% gel, Day 3, per patient): 25% (2×) and 0%
Percent of Mouth that Lesions Occupy ([1]; 0.0275% gel, Day 4, per patient): 0%
Percent of Mouth that Lesions Occupy ([1]; 0.0275% gel, Day 5, per patient): 0%
Percent of Mouth that Lesions Occupy ([1]; 0.0275% gel, Day 6, per patient): 0%
Percent of Mouth that Lesions Occupy ([1]; 0.0275% gel, Day 7, per patient): 0%
Mean Percent Reduction From Original Per Day ([1]; 0.0275% gel): 38.9%
Difference in reduction of oral mucous membrane involvement vs placebo ([1]; 0.0275% vs placebo, p<.O1): highly statistically significant
Mean % Reduction In Symptom ([1]; Table 9.7, 0.0045% gel): 58.3%
Mean % Reduction In Symptom ([1]; Table 9.7, 0.0275% gel): 83.3%
Mean Percent Reduction Per Day in Discomfort with Food/Drink ([1]; Table 9.7, 0.0275% gel, per patient): 100.0% (2×) and 50.0%
Untoward effects ([1]; in vivo): no untoward effects
Mean % Reduction In Healing Time per Lesion ([2]; 0.0067% IEP gel): 50.0%
Itching score ([2]; 0.0067% IEP gel, day 1): 2
Local pain score ([2]; 0.0067% IEP gel, day 1): 2
Itching score ([2]; 0.0067% IEP gel, day 2): 0
Local pain score ([2]; 0.0067% IEP gel, day 2): 1
Itching score ([2]; 0.0067% IEP gel, day 3): 0
Local pain score ([2]; 0.0067% IEP gel, day 3): 0
Itching score ([2]; 0.0067% IEP gel, day 4): 0
Local pain score ([2]; 0.0067% IEP gel, day 4): 0
Itching score ([2]; 0.0067% IEP gel, day 5): 0
Local pain score ([2]; 0.0067% IEP gel, day 5): 0
Mean Time to Lesion Healing ([2]; 0.0067% gel): 3.5 days
Mean % Reduction In Healing Time per Lesion ([2]; 0.009% IEP gel): 64.28%
Itching score ([2]; 0.009% IEP gel, day 1): 2
Local pain score ([2]; 0.009% IEP gel, day 1): 3
Itching score ([2]; 0.009% IEP gel, day 2): 0
Local pain score ([2]; 0.009% IEP gel, day 2): 1
Itching score ([2]; 0.009% IEP gel, day 3): 0
Local pain score ([2]; 0.009% IEP gel, day 3): 0
Itching score ([2]; 0.009% IEP gel, day 4): 0
Local pain score ([2]; 0.009% IEP gel, day 4): 0
Itching score ([2]; 0.009% IEP gel, day 5): 0
Local pain score ([2]; 0.009% IEP gel, day 5): 0
Mean Time to Lesion Healing ([2]; 0.009% gel): 2.5 days
Difference in mean percent reduction in complete healing time per lesion vs placebo ([2]; combined 0.0067% and 0.009% groups, p<0.05): significant
Progression of lesion stages ([2]; lesions treated with 0.0067% and 0.009% gel): did not progress through the usual progression of lesions stages
Untoward reactions ([2]; topical gel 0.0067%, 0.009%, three times a day for five days): no untoward reactions
